Laboratory results from patent publication US20210002231A1 (Centre National de la Recherche Scientifique, priority 2018, published 2021).
Starred links: 1 amine or outer side, 2 acyl side, 3 side chain; linkers in the order of their positions; H or OH if unused. Non-standard residues stand in square brackets, D forms with d. Residues, ends and D or L forms follow the SMILES beside them. *: point of attachment. Nva(5-(4-Bn-piperidin-1-yl)) = N[C@@H](CCCN1CCC(Cc2ccccc2)CC1)C(=O)O; X5 = O=C1[C@@H](N[*:1])Cc2ccccc2CN1CCCC(=O)[*:2]; X1 = O=C1[C@@H](N[*:1])Cc2ccccc2CN1CCC(=O)[*:2]; Tic(7-OH) = O=C(O)[C@@H]1Cc2ccc(O)cc2CN1; Dmt = Cc1cc(O)cc(C)c1C[C@H](N)C(=O)O; d(hArg) = N=C(N)NCCCC[C@@H](N)C(=O)O; NMeβAla = CN(CCC(=O)[*:2])[*:1]; Nicotinoyl = O=C(c1cccnc1)*; dOrn = NCCC[C@@H](N)C(=O)O; dNMeA = CN[C@H](C)C(=O)O

What was measured:
human MOPr [1] = target: T1, human MOPr (Homo sapiens, UniProt P35372); experiment: BRET1 β-arrestin-2 recruitment assay; format: cell-based; set-up: expressed in transfected cells; host or cells: HEK293 cells stably expressing eYFP-β-arrestin-2, transiently transfected with the Rluc8-MOP plasmid; conditions: for Emax: read-out: MOPr (β-arrestin-2) Emax; for β-arrestin-2 recruitment: in words;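 on Emax: Emax relative to maximal DAMGO-induced BRET as 100%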;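 on MOPr (β-arrestin-2) Emax: Emax relative to maximal DAMGO-induced BRET as 100%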
Procedure: Peak response amplitudes were normalized to basal and maximal (cells permeabilized with 20 μM digitonin) fluorescence levels. 1.8. β-Arrestin-2 recruitment assay The β-arrestin-2 recruitment assay was performed as described [34; 45] with minor modifications. Briefly, two days prior the experiment, HEK293 cells stably expressing eYFP-tagged β-arrestin-2 were transfected with the plasmid encoding Rluc8-MOP receptor. β-Arrestin-2 recruitment was measured at 37° C. in presence of 5 μM Coelenterazine H, 5 min after agonist addition.

NPFF2R = NPFF2R (Homo sapiens, UniProt Q9Y5X5); experiment: Radioligand competition binding with [125I]-1-DMe-NPFF; set-up: expressed in transfected cells; HEK293-Glo20F cells (cAMP)
human MOPr [2] = target: T1, human MOPr; experiment: cell-based; format: cell-based; set-up: expressed in transfected cells; HEK293-Glo20F cells (cAMP); conditions: for Emax: read-out: MOPr (cAMP) Emax; for MOPr-induced G protein activation: in words
Procedure: Stimulation by endogenous RF-amide peptides or test compounds for [^35S]-GTPγS binding to membranes from CHO cells expressing human NPFF1R or NPFF2R, were examined as reported. 1.6. Glo-Sensor cAMP Assay cAMP accumulation assay was essentially done as described with the following modifications: HEK293 cells stably expressing cAMP Glosensor-20F were used, with or without additional stable expression of each individual opioid receptor or NPFF1R. The cAMP responses were measured in presence of D-luciferin (1 mM).

human NPFF1R = human NPFF1R (Homo sapiens, UniProt Q9GZQ6); experiment: Radioligand competition binding with [125I]-1-DMe-NPFF; set-up: expressed in transfected cells; HEK293-Glo20F cells (cAMP)
[3] = Table 3B, — = non-detectable recruitment, read-out: MOPr (β-arrestin-2) EC50
[4] = Table 3B, read-out: MOPr (cAMP) EC50
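Wherever MOPr (cAMP) Emax is given: Emax relative to DAMGO as 100%.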

Sequence of human NPFF1R (Q9GZQ6 whole entry): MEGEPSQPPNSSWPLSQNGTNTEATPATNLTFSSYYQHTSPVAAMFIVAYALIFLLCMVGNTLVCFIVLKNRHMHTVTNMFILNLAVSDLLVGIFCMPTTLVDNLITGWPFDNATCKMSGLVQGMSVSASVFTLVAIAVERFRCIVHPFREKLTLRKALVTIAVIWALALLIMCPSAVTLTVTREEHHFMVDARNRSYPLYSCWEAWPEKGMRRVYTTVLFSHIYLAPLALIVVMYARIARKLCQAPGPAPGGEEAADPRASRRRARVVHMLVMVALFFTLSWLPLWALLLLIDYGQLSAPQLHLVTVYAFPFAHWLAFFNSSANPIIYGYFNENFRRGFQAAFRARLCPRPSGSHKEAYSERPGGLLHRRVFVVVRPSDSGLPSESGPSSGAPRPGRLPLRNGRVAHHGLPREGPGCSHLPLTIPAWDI
Sequence of NPFF2R (Q9Y5X5 whole entry): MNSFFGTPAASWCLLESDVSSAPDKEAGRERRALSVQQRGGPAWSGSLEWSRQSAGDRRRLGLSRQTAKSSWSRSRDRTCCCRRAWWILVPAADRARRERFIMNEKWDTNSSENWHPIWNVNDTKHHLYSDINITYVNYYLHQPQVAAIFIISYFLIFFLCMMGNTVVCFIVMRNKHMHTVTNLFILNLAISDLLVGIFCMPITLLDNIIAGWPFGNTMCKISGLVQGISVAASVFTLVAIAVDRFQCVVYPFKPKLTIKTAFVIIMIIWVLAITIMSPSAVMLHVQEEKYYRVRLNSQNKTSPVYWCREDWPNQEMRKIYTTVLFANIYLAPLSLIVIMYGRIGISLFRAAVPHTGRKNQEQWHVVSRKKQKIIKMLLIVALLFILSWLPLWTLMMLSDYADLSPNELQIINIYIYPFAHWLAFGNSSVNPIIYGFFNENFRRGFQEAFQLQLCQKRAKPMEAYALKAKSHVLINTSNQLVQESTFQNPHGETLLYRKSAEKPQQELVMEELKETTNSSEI
T1 sequence (P35372 whole entry): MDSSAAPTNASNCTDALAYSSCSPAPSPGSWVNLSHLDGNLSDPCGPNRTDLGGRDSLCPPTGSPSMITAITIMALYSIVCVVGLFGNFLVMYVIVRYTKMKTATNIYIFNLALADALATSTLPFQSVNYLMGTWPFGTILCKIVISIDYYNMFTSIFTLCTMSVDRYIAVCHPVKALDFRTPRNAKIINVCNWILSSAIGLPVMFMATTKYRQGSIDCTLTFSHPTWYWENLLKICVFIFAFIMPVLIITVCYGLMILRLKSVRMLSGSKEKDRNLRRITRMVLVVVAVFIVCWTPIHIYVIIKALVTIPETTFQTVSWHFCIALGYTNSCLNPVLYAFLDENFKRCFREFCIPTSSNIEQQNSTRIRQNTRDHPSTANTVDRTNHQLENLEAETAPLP

Compound	EC50 (human MOPr [1]; [3]) [nM]	Emax (human MOPr [1]) [%]	IC50 (NPFF2R) [nM]	EC50 (human MOPr [2]; [4]) [nM]	Emax (human MOPr [2]) [%]	IC50 (human NPFF1R) [nM]	β-arrestin-2 recruitment (human MOPr [1])	MOPr-induced G protein activation (human MOPr [2])	EC50 (human MOPr [1]) [nM]	EC50 (human MOPr [2]; MOPr (cAMP) EC50, Table 3B) [nM]
Cc1cc(O)cc(C)c1C[C@H](N)C(=O)N[C@H](CCCNC(=N)N)C(=O)N[C@H]1Cc2ccccc2CN(CCC(=O)N[C@@H](CCCN2CCC(Cc3ccccc3)CC2)C(=O)N[C@@H](Cc2ccc(O)cc2)C(N)=O)C1=O [DP0004, H-Dmt-D-Arg-Aba-β-Ala-Bpa-Tyr-NH2] (H-[Dmt][dR][X1][Nva(5-(4-Bn-piperidin-1-yl))]Y-NH2)	126	64	< 50	4.2 ± 0.7	88 ± 4	50 to 500				
Cc1cc(O)cc(C)c1C[C@H](N)C(=O)N[C@H](CCCNC(=N)N)C(=O)N[C@H]1Cc2ccccc2CN(CCC(=O)N[C@@H](CCCN2CCC(Cc3ccccc3)CC2)C(=O)N[C@@H](Cc2c[nH]c3ccccc23)C(N)=O)C1=O [DP0005, H-Dmt-D-Arg-Aba-β-Ala-Bpa-Trp-NH2] (H-[Dmt][dR][X1][Nva(5-(4-Bn-piperidin-1-yl))]W-NH2)	98	42	< 50	7.9 ± 0.5	81 ± 0.6	~50				
Cc1cc(O)cc(C)c1C[C@H](N)C(=O)N[C@H](CCCNC(=N)N)C(=O)N[C@H]1Cc2c(ccc3ccccc23)CN(CC(=O)N[C@@H](CCCN2CCC(Cc3ccccc3)CC2)C(=O)N[C@@H](Cc2ccccc2)C(N)=O)C1=O [DP0012, H-Dmt-D-Arg-1AnaGly-Bpa-Phe-NH2]	650	22	< 40	15.1 ± 0.4	90 ± 2	< 40				
Cc1cc(O)cc(C)c1C[C@H](N)C(=O)N[C@H](CCCNC(=N)N)C(=O)N[C@@H](Cc1ccccc1)C(=O)N(C)CCC(=O)N[C@@H](CCCN1CCC(Cc2ccccc2)CC1)C(=O)N[C@@H](Cc1ccccc1)C(N)=O [DP0013, H-Dmt-D-Arg-Phe-N(Me)-β-Ala-Bpa-Phe-NH2] (H-[Dmt][dR]F[NMeβAla][Nva(5-(4-Bn-piperidin-1-yl))]F-NH2)	20.5	101	~40	0.53 ± 0.004	115 ± 4	< 40				
Cc1cc(O)cc(C)c1C[C@H](N)C(=O)N(C)[C@H](C)C(=O)N[C@H]1Cc2c(ccc3ccccc23)CN(CC(=O)N[C@@H](CCCN2CCC(Cc3ccccc3)CC2)C(=O)N[C@@H](Cc2ccccc2)C(N)=O)C1=O [DP0014, H-Dmt-N(Me)-D-Ala-1AnaGly-Bpa-Phe-NH2]			~40	5.3	76	< 40	non-detectable	significant		
Cc1cc(O)cc(C)c1C[C@H](N)C(=O)N[C@H](CCCNC(=N)N)C(=O)N[C@H]1Cc2ccccc2CN(CCCC(=O)N[C@@H](CCCN2CCC(Cc3ccccc3)CC2)C(=O)N[C@@H](Cc2ccccc2)C(N)=O)C1=O [DP0018, H-Dmt-D-Arg-AbaGABA-Bpa-Phe-NH2] (H-[Dmt][dR][X5][Nva(5-(4-Bn-piperidin-1-yl))]F-NH2)	95.8	31	< 40	5.5	108	40 to 400				
Cc1cc(O)cc(C)c1C[C@H](N)C(=O)N[C@H](CCCNC(=N)N)C(=O)N[C@@H](Cc1ccccc1)C(=O)NCCC(=O)N[C@@H](CCCN1CCC(Cc2ccccc2)CC1)C(=O)N[C@@H](Cc1ccccc1)C(N)=O [DP0019, H-Dmt-D-Arg-Phe-β-Ala-Bpa-Phe-NH2] (HELM PEPTIDE1{[Cc1cc(O)cc(C)c1C[C@H](N)C(=O)[*:2]].[dR].F.[bAla].[O=C([C@H](CCCN1CCC(Cc2ccccc2)CC1)N[*:1])[*:2]].F.[am]}$$$$V2.0)	162	53	40 to 400	4 ± 0.4	101 ± 1	40 to 400				
Cc1cc(O)cc(C)c1C[C@H](N)C(=O)N[C@H](CCCNC(=N)N)C(=O)N[C@@H](Cc1ccccc1)C(=O)N(C)CC(=O)N[C@@H](CCCN1CCC(Cc2ccccc2)CC1)C(=O)N[C@H](C(N)=O)C(C)C [DP0025, H-Dmt-D-Arg-Phe-N(Me)Gly-Bpa-Val-NH2] (HELM PEPTIDE1{[Cc1cc(O)cc(C)c1C[C@H](N)C(=O)[*:2]].[dR].F.[Sar].[O=C([C@H](CCCN1CCC(Cc2ccccc2)CC1)N[*:1])[*:2]].V.[am]}$$$$V2.0)	~50	~114		7.1	110					
Cc1cc(O)cc(C)c1C[C@H](N)C(=O)N[C@H](CCCNC(=N)N)C(=O)N[C@H]1Cc2ccccc2CN(CCC(=O)N[C@@H](CCCN2CCc3ccccc3C2)C(=O)N[C@@H](Cc2ccccc2)C(N)=O)C1=O [DP0026, H-Dmt-D-Arg-Aba-β-Ala-THIQ-Phe-NH2]		~50		2.4	98					
Cc1cc(O)cc(C)c1C[C@H](N)C(=O)N[C@H](CCCNC(=N)N)C(=O)N[C@H]1Cc2ccccc2CN(CCC(=O)N[C@H](CCCN2CCC(Cc3ccccc3)CC2)C(=O)N[C@@H](Cc2ccccc2)C(N)=O)C1=O [DP0027, H-Dmt-D-Arg-Aba-β-Ala-D-Bpa-Phe-NH2]	~180	~68		13.6	95					
Cc1cc(O)cc(C)c1C[C@H](N)C(=O)N[C@H](CCCN)C(=O)N[C@H]1Cc2ccccc2CN(CCC(=O)N[C@@H](CCCN2CCC(Cc3ccccc3)CC2)C(=O)N[C@@H](Cc2ccccc2)C(N)=O)C1=O [DP0028, H-Dmt-D-Orn-Aba-β-Ala-Bpa-Phe-NH2] (H-[Dmt][dOrn][X1][Nva(5-(4-Bn-piperidin-1-yl))]F-NH2)				40.4	75		non-detectable	significant		
Cc1cc(O)cc(C)c1C[C@H](N)C(=O)N[C@H](CCCCN)C(=O)N[C@H]1Cc2ccccc2CN(CCC(=O)N[C@@H](CCCN2CCC(Cc3ccccc3)CC2)C(=O)N[C@@H](Cc2ccccc2)C(N)=O)C1=O [DP0029, H-Dmt-D-Lys-Aba-β-Ala-Bpa-Phe-NH2] (H-[Dmt][dK][X1][Nva(5-(4-Bn-piperidin-1-yl))]F-NH2)				25.7	72		non-detectable	significant		
Cc1cc(O)cc(C)c1C[C@H](N)C(=O)N[C@H](CCCNC(=N)N)C(=O)N[C@@H](Cc1ccccc1)C(=O)N(C)[C@H](C)C(=O)N[C@@H](CCCN1CCC(Cc2ccccc2)CC1)C(=O)N[C@@H](Cc1ccccc1)C(N)=O [DP0030, H-Dmt-D-Arg-Phe-N(Me)-D-Ala-Bpa-Phe-NH2] (H-[Dmt][dR]F[dNMeA][Nva(5-(4-Bn-piperidin-1-yl))]F-NH2)	~150	~85		27.7	111					
N=C(N)NCCC[C@@H](NC(=O)[C@@H]1Cc2ccc(O)cc2CN1)C(=O)N[C@H]1Cc2ccccc2CN(CCC(=O)N[C@@H](CCCN2CCC(Cc3ccccc3)CC2)C(=O)N[C@@H](Cc2ccccc2)C(N)=O)C1=O [DP0031, 7-OH-Tic-D-Arg-Aba-β-Ala-Bpa-Phe-NH2] (H-[Tic(7-OH)][dR][X1][Nva(5-(4-Bn-piperidin-1-yl))]F-NH2; N-terminus assumed)		~40		3600	46				> 500	
Cc1cc(O)cc(C)c1C[C@H](NC(=N)N)C(=O)N[C@H](CCCNC(=N)N)C(=O)N[C@H]1Cc2ccccc2CN(CCC(=O)N[C@@H](CCCN2CCC(Cc3ccccc3)CC2)C(=O)N[C@@H](Cc2ccccc2)C(N)=O)C1=O [DP0032, Guanidyl-Dmt-D-Arg-Aba-β-Ala-Bpa-Phe-NH2]					63		non-detectable	significant		12.6
Cc1cc(O)cc(C)c1C[C@H](N)C(=O)N[C@H](CCCCNC(=N)N)C(=O)N[C@H]1Cc2ccccc2CN(CCC(=O)N[C@@H](CCCN2CCC(Cc3ccccc3)CC2)C(=O)N[C@@H](Cc2ccccc2)C(N)=O)C1=O [DP0033, H-Dmt-D-hArg-Aba-β-Ala-Bpa-Phe-NH2] (H-[Dmt][d(hArg)][X1][Nva(5-(4-Bn-piperidin-1-yl))]F-NH2)				24.9	41		non-detectable	significant		
Cc1cc(O)cc(C)c1C[C@H](N)C(=O)N[C@H](CCCCNC(=O)c1cccnc1)C(=O)N[C@H]1Cc2ccccc2CN(CCC(=O)N[C@@H](CCCN2CCC(Cc3ccccc3)CC2)C(=O)N[C@@H](Cc2ccccc2)C(N)=O)C1=O [DP0034, H-Dmt-D-Lys(Nic)-Aba-β-Ala-Bpa-Phe-NH2] (H-[Dmt][dK](Nicotinoyl)[X1][Nva(5-(4-Bn-piperidin-1-yl))]F-NH2)		~18		3.9	92				5 to 50	
